The numbers were not newly measured in patent US20110144198A1, “BREAST CANCER PROGNOSTICS” (ATLAS ANTIBODIES AB, priority 2008, published 2011), which cites them from elsewhere.

Data set [1] has as its system ERα positive (ERα+) patients.
The test system of a further data set is ERα+/PR− tumors. The settings on record: follow-up period of 6 years.

Take `CC/C(=C(\c1ccccc1)c1ccc(OCCN(C)C)cc1)c1ccccc1` [tamoxifen]: the “fraction of ERα+ patients that do not respond to treatment” value in data set [1] is 30-40%.
As for `CC(C)(C#N)c1cc(Cn2cncn2)cc(C(C)(C)C#N)c1` [anastrozole], the “recurrence rate compared to patients treated with tamoxifen” value with ERα+/PR− tumors was “halved”.
